Tested on: P12-Ichikawa
Assay: cell viability relative to DMSO control; higher = less cytotoxic
Settings: 48 h
Method in brief: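 NOMO1, SEM and P12-Ichikawa leukemia cells spent at least four passages adapting to each medium before use. They were seeded at 500 cells/well (NOMO1, SEM) or 1000 cells/well (P12-Ichikawa) in 5 μl in 1536-well plates and pin-dosed with library compounds in DMSO at 11 threefold steps from 47 μM down to 0.79 nM. After 48 h at 37°C, CellTiter-Glo One luminescence was read. Viability is reported as a percentage of the DMSO wells on each plate, with cell-free wells as background.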

[1] = HPLM + 10% dialyzed FBS, 0.000781 µM
[2] = HPLM + 10% dialyzed FBS, 0.00234 µM
[3] = HPLM + 10% dialyzed FBS, 0.00702 µM
[4] = HPLM + 10% dialyzed FBS, 0.0211 µM
[5] = HPLM + 10% dialyzed FBS, 0.0632 µM
[6] = HPLM + 10% dialyzed FBS, 0.19 µM
[7] = HPLM + 10% dialyzed FBS, 0.569 µM
[8] = HPLM + 10% dialyzed FBS, 1.71 µM
[9] = HPLM + 10% dialyzed FBS, 5.12 µM
[10] = HPLM + 10% dialyzed FBS, 15.4 µM
[11] = HPLM + 10% dialyzed FBS, 46.1 µM
[12] = RPMI 5 mM glucose + 10% FBS, 0.000781 µM
[13] = RPMI 5 mM glucose + 10% FBS, 0.00234 µM
[14] = RPMI 5 mM glucose + 10% FBS, 0.00702 µM
[15] = RPMI 5 mM glucose + 10% FBS, 0.0211 µM
[16] = RPMI 5 mM glucose + 10% FBS, 0.0632 µM
[17] = RPMI 5 mM glucose + 10% FBS, 0.19 µM
[18] = RPMI 5 mM glucose + 10% FBS, 0.569 µM
[19] = RPMI 5 mM glucose + 10% FBS, 1.71 µM
[20] = RPMI 5 mM glucose + 10% FBS, 5.12 µM
[21] = RPMI 5 mM glucose + 10% FBS, 15.4 µM
[22] = RPMI 5 mM glucose + 10% FBS, 46.1 µM
[23] = RPMI 5 mM glucose + 10% dialyzed FBS, 0.000781 µM
[24] = RPMI 5 mM glucose + 10% dialyzed FBS, 0.00234 µM
[25] = RPMI 5 mM glucose + 10% dialyzed FBS, 0.00702 µM
[26] = RPMI 5 mM glucose + 10% dialyzed FBS, 0.0211 µM
[27] = RPMI 5 mM glucose + 10% dialyzed FBS, 0.0632 µM
[28] = RPMI 5 mM glucose + 10% dialyzed FBS, 0.19 µM
[29] = RPMI 5 mM glucose + 10% dialyzed FBS, 0.569 µM
[30] = RPMI 5 mM glucose + 10% dialyzed FBS, 1.71 µM
[31] = RPMI 5 mM glucose + 10% dialyzed FBS, 5.12 µM
[32] = RPMI 5 mM glucose + 10% dialyzed FBS, 15.4 µM
[33] = RPMI 5 mM glucose + 10% dialyzed FBS, 46.1 µM

SMILES | cell viability [1] | cell viability [2] | cell viability [3] | cell viability [4] | cell viability [5] | cell viability [6] | cell viability [7] | cell viability [8] | cell viability [9] | cell viability [10] | cell viability [11] | cell viability [12] | cell viability [13] | cell viability [14] | cell viability [15] | cell viability [16] | cell viability [17] | cell viability [18] | cell viability [19] | cell viability [20] | cell viability [21] | cell viability [22] | cell viability [23] | cell viability [24] | cell viability [25] | cell viability [26] | cell viability [27] | cell viability [28] | cell viability [29] | cell viability [30] | cell viability [31] | cell viability [32] | cell viability [33]
O=C(Oc1ccc([N+](=O)[O-])cc1)N1CCC(C(O)(c2ccc3c(c2)OCO3)c2ccc3c(c2)OCO3)CC1 | 90% | 95.5% | 90.2% | 98.7% | 92% | 99.4% | 102% | 91.4% | 93.6% | 79.3% | 69.3% | 91.8% | 85% | 90.3% | 99.3% | 91.3% | 91.9% | 99.3% | 90.3% | 68.5% | 93.7% | 93.1% | 75.9% | 88.5% | 86.3% | 88.6% | 90.2% | 90.3% | 86.4% | 91.8% | 73.5% | 91.1% | 84.9%
N#Cc1ccnc(Nc2cc(C3CCN(C4COC4)CC3)cc(N3CCC(F)(F)C3)n2)c1 | 97.8% | 99.8% | 104% | 105% | 99.5% | 104% | 100% | 108% | 107% | 88.2% | 36.1% | 105% | 104% | 101% | 101% | 102% | 99.7% | 108% | 115% | 108% | 62.8% | 32.2% | 108% | 104% | 101% | 103% | 109% | 104% | 106% | 108% | 111% | 56.8% | 36.8%
CC(C)C[C@H](NC(=O)CNC(=O)c1cc(Cl)ccc1Cl)B(O)O | 91% | 98.3% | 99.7% | 14.2% | 106% | 78% | 6.35% | 5.51% | 4.53% | 3% | 2.23% | 78.7% | 89% | 85.8% | 11.8% | 102% | 73.1% | 6.15% | 5.14% | 4.49% | 3.12% | 1.86% | 88.7% | 88.6% | 91.2% | 21.6% | 100% | 88% | 6.52% | 5.26% | 4.56% | 2.86% | 1.63%
CC(/C=C/C(=O)NO)=C\[C@@H](C)C(=O)c1ccc(N(C)C)cc1 | 111% | 115% | 114% | 107% | 109% | 114% | 90.5% | 48.4% | 3.82% | 1.6% | 0.388% | 116% | 116% | 119% | 114% | 119% | 111% | 98.3% | 28.3% | 2.14% | 1.05% | 0.409% | 107% | 113% | 109% | 116% | 110% | 107% | 91.8% | 29.8% | 2.07% | 1.68% | 0.629%
Cn1c(=O)n(-c2ccc(C(C)(C)C#N)cc2)c2c3cc(-c4cnc5ccccc5c4)ccc3ncc21 | 108% | 120% | 113% | 105% | 110% | 98% | 92.1% | 43.2% | 18.2% | 13.3% | 17.6% | 114% | 108% | 106% | 90.6% | 88.2% | 82.7% | 67.6% | 67.2% | 42.1% | 10.7% | 12.1% | 110% | 117% | 111% | 105% | 101% | 82% | 81.1% | 57% | 33.4% | 15.3% | 16.1%
CNC[C@H](O)c1cccc(O)c1 | 92% | 95.4% | 103% | 12.5% | 107% | 102% | 108% | 116% | 111% | 105% | 109% | 84.8% | 98.4% | 94.8% | 15.9% | 101% | 109% | 103% | 109% | 99.5% | 103% | 114% | 84.5% | 84.4% | 89.1% | 26.2% | 97.9% | 99.5% | 101% | 96.3% | 91.2% | 105% | 98%
CN1c2ccccc2C(=O)N2CCc3c([nH]c4ccccc34)C21 (stereo not drawn) | 122% | 118% | 112% | 123% | 119% | 120% | 116% | 115% | 111% | 116% | 117% | 125% | 139% | 113% | 119% | 121% | 118% | 122% | 119% | 117% | 118% | 111% | 127% | 122% | 114% | 125% | 129% | 116% | 111% | 114% | 118% | 115% | 107%
C[S+](=O)([O-])c1ccc(C(=O)Nc2ccc(Cl)c(-c3ccccn3)c2)c(Cl)c1 | 113% | 113% | 123% | 132% | 131% | 135% | 136% | 125% | 131% | 126% | 127% |  |  |  |  |  |  |  |  |  |  |  |  |  |  |  |  |  |  |  |  |  | 
COc1ccc([C@@H]2CC(=O)c3c(O)cc(O[C@@H]4O[C@H](CO[C@@H]5O[C@@H](C)[C@H](O)[C@@H](O)[C@H]5O)[C@@H](O)[C@H](O)[C@H]4O)cc3O2)cc1O | 97.9% | 99% | 116% | 118% | 113% | 116% | 107% | 116% | 114% | 111% | 116% | 96.2% | 101% | 110% | 113% | 107% | 114% | 111% | 106% | 107% | 116% | 109% | 104% | 111% | 109% | 108% | 114% | 111% | 113% | 111% | 108% | 115% | 109%
CC(C)c1cc(C(=O)N2Cc3ccc(CN4CCN(C)CC4)cc3C2)c(O)cc1O | 118% | 121% | 123% | 106% | 124% | 109% | 89.3% | 65.8% | 54.7% | 52.8% | 51.4% | 115% | 119% | 115% | 105% | 114% | 97.7% | 56.4% | 52.5% | 41.3% | 40.7% | 39.8% | 119% | 122% | 125% | 112% | 125% | 112% | 65.3% | 50% | 43.3% | 44.5% | 43.3%
CN(C)CCOc1ccc(-c2nc(-c3ccncc3)c(-c3ccc4c(c3)CC/C4=N\O)[nH]2)cc1 | 103% | 107% | 106% | 100% | 103% | 109% | 106% | 100% | 93.7% | 90.6% | 65.9% | 113% | 108% | 109% | 110% | 109% | 107% | 109% | 103% | 94.5% | 96.4% | 65.6% | 109% | 104% | 114% | 101% | 106% | 105% | 109% | 104% | 96.8% | 84% | 66.7%
CN1C(=O)C[C@H](C(=O)N[C@@H](Cc2cnc[nH]2)C(=O)N2CCC[C@H]2C(N)=O)NC1=O |  |  |  |  |  |  |  |  |  |  |  |  |  |  |  |  |  |  |  |  |  |  | 114% | 128% | 121% | 115% | 132% | 123% | 118% | 120% | 119% | 119% | 90.6%
Cc1cc(Nc2cc(CN3CCOCC3)c3nc(C)c(Cc4ccc(Cl)cc4F)n3n2)[nH]n1 | 112% | 105% | 119% | 116% | 109% | 111% | 114% | 104% | 96.5% | 34.8% | 78.4% | 120% | 114% | 117% | 117% | 110% | 116% | 96.2% | 109% | 86.6% | 48.1% | 56.5% | 106% | 101% | 115% | 114% | 104% | 111% | 99.7% | 104% | 95.8% | 51.5% | 62.7%
CCOC(=O)c1cncn1[C@H](C)c1ccccc1 | 122% | 123% | 115% | 127% | 128% | 121% | 125% | 121% | 112% | 109% | 106% | 125% | 129% | 122% | 136% | 122% | 116% | 121% | 113% | 115% | 114% | 120% | 121% | 126% | 119% | 124% | 128% | 122% | 126% | 121% | 115% | 113% | 111%
